Data published in US20120309739A1, “AKT / PKB INHIBITORS” (ALMAC DISCOVERY LIMITED, priority 2009, published 2012).
Where a name gives a salt, the structure may show the parent alone.

Tests used:
Assay type in all cases: biochemical
AKT3 = target: T1, AKT3 (Homo sapiens, UniProt Q9Y243); test: AKT Kinase Assay (IMAP fluorescent polarisation) vs AKT3; conditions: activated AKT3, FAM Crosstide substrate
T1 construct: purchased SignalChem
In short: (§1)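 IMAP fluorescence-polarisation read-out (485/528 nm) of 5′FAM-Crosstide phosphorylation; IC50 fitted by non-linear regression from % inhibition against vehicle. Fourteen-point half-log compound dilutions sat 45 min at room temperature with activated isoform at linear-range amount. ATP and substrate followed for 1 h, then a 1 h binding-reagent stop.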

AKT2 = target: T2, AKT2 (Homo sapiens, UniProt P31751); test: AKT Kinase Assay (IMAP fluorescent polarisation) vs AKT2; conditions: activated AKT2, FAM Crosstide substrate
T2 construct: purchased SignalChem
T2 sequence (P31751 whole entry): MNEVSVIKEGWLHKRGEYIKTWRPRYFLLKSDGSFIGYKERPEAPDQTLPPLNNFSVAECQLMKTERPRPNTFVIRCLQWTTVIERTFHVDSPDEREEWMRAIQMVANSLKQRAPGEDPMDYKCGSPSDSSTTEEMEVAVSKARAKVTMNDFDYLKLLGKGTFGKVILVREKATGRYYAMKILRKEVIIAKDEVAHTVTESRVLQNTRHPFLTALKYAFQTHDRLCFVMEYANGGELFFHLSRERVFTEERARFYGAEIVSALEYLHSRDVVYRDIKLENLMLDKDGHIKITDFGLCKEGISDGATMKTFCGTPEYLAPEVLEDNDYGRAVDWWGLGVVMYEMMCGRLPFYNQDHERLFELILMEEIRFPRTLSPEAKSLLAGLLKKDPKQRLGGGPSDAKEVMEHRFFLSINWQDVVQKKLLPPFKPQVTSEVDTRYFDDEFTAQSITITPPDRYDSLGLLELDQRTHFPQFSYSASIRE
In short: as §1

AKT1 = target: T3, AKT1 (Homo sapiens, UniProt P31749); test: AKT Kinase Assay (IMAP fluorescent polarisation) vs AKT1; conditions: activated AKT1, FAM Crosstide substrate
T3 construct: purchased SignalChem
T3 sequence (P31749 whole entry): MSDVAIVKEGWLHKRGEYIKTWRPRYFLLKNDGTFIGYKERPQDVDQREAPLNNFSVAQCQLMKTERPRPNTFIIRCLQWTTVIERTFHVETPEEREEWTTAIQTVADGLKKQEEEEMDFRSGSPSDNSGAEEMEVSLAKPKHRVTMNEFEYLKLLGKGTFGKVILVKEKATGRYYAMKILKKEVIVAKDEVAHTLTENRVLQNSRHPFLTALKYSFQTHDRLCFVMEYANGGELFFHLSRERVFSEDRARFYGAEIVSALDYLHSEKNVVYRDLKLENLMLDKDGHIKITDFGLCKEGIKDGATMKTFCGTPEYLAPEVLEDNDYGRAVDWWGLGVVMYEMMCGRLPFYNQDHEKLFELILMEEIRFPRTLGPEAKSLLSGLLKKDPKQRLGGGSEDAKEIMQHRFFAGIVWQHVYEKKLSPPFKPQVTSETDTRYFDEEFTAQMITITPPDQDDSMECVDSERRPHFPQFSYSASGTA
In short: as §1

T1 sequence (Q9Y243 whole entry): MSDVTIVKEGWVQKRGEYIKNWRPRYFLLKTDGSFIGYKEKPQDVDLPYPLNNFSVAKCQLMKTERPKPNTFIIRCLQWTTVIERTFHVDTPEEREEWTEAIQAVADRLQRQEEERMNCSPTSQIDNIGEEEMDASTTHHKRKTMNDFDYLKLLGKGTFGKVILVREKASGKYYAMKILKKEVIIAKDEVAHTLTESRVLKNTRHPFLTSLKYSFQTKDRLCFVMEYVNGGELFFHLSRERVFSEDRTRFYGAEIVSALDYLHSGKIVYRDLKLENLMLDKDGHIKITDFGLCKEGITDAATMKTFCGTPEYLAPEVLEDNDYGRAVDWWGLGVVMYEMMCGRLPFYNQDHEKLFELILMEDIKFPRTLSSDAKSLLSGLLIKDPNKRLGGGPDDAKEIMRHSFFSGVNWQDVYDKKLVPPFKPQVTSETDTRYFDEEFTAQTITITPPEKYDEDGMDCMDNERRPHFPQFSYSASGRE

IC50 (AKT3)	IC50 (AKT2)	IC50 (AKT1)	Structure (SMILES)
1 to 10 µM	≤ 0.1 µM	1 to 10 µM	NC1(c2ccc(-c3oc4ncn(CC(F)(F)F)c(=O)c4c3-c3ccccc3)cc2)CCC1 [Example 106, 6-(4-(1-Aminocyclobutyl)phenyl)-5-phenyl-3-(2,12-trifluoroethyl)furo[2,3-d]pyrimidin-4(3H)-one, HCl]
1 to 10 µM	0.1 to 1 µM	1 to 10 µM	CC(C)n1cnc2oc(-c3ccc(C4(N)CCC4)cc3)c(-c3ccccc3)c2c1=O [Example 107, 6-(4-(1-Aminocyclobutyl)phenyl)-3-isopropyl-5-phenylfuro[2,3-d]pyrimidin-4(3H)-one, HCl]
1 to 10 µM	≤ 0.1 µM	1 to 10 µM	NC1(c2ccc(-c3oc4ncn(CC(F)F)c(=O)c4c3-c3ccccc3)cc2)CCC1 [Example 108, 6-(4-(1-Aminocyclobutyl)phenyl)-3-(2,2-difluoroethyl)-5-phenylfuro[2,3-d]pyrimidin-4(3H)-one]
1 to 10 µM	≤ 0.1 µM	1 to 10 µM	NC1(c2ccc(-c3oc4nc(NCCO)n(CCF)c(=O)c4c3-c3ccccc3)cc2)CCC1 [Example 110, 6-(4-(1-Aminocyclobutyl)phenyl)-3-(2-fluoroethyl)-2-(2-hydroxyethylamino)-5-phenylfuro[2,3-d]pyrimidin-4(3H)-one]
1 to 10 µM	0.1 to 1 µM	≤ 0.1 µM	NC1(c2ccc(-c3oc4nc(NCCO)nc(OCCF)c4c3-c3ccccc3)cc2)CCC1 [Example 111, 2-((6-(4-(1-Aminocyclobutyl)phenyl)-4-(2-fluoroethoxy)-5-phenylfuro[2,3-d]pyrimidin-2-yl)amino)ethanol]
> 10 µM	≤ 0.1 µM	0.1 to 1 µM	NC1(c2ccc(-c3oc4c(Br)cn(CCF)c(=O)c4c3-c3ccccc3)cc2)CCC1 [Example 112]
> 10 µM	0.1 to 1 µM	0.1 to 1 µM	Cn1cc(C(=O)NCCO)c2oc(-c3ccc(C4(N)CCC4)cc3)c(-c3ccccc3)c2c1=O [Example 120, 2-(4-(1-Aminocyclobutyl)phenyl)-N-(2-hydroxyethyl)-5-methyl-4-oxo-3-phenyl-4,5-dihydrofuro[3,2-c]pyridine-7-carboxamide]
1 to 10 µM	≤ 0.1 µM	0.1 to 1 µM	NC1(c2ccc(-c3oc4nc(NCCO)n(CC(F)(F)F)c(=O)c4c3-c3ccccc3)cc2)CCC1 [Example 121, 6-(4-(1-Aminocyclobutyl)phenyl)-2-((2-hydroxyethyl)amino)-5-phenyl-3-(2,2,2-trifluoroethyl)furo[2,3-d]pyrimidin-4(3H)-one]
1 to 10 µM	≤ 0.1 µM	0.1 to 1 µM	CNc1nc2oc(-c3ccc(C4(N)CCC4)cc3)c(-c3ccccc3)c2c(=O)n1CC(F)(F)F [Example 122, 6-(4-(1-Aminocyclobutyl)phenyl)-2-(methylamino)-5-phenyl-3-(2,2,2-trifluoroethyl)furo[2,3-d]pyrimidin-4(3H)-one]
1 to 10 µM	≤ 0.1 µM	0.1 to 1 µM	Cc1nc2oc(-c3ccc(C4(N)CCC4)cc3)c(-c3ccccc3)c2c(=O)n1CC(F)(F)F [Example 123, 6-(4-(1-Aminocyclobutyl)phenyl)-2-methyl-5-phenyl-3-(2,2,2-trifluoroethyl)furo[2,3-d]pyrimidin-4(3H)-one]
> 10 µM	0.1 to 1 µM	0.1 to 1 µM	COc1nccc2c(-c3ccccc3)c(-c3ccc(C4(N)CCC4)cc3)oc12 [Example 126, 1-(4-(7-Methoxy-3-phenylfuro[2,3-c]pyridin-2-yl)phenyl)cyclobutanamine]
> 10 µM	0.1 to 1 µM	1 to 10 µM	NC1(c2ccc(-c3oc4c(=O)n(CCF)ccc4c3-c3ccccc3)cc2)CCC1 [Example 130, 2-(4-(1-Aminocyclobutyl)phenyl)-6-(2-fluoroethyl)-3-phenylfuro[2,3-c]pyridin-7(6H)-one]
1 to 10 µM	0.1 to 1 µM	1 to 10 µM	NC1(c2ccc(-c3oc4c(=O)n(CCCO)ccc4c3-c3ccccc3)cc2)CCC1 [Example 131, 2-(4-(1-Aminocyclobutyl)phenyl)-6-(3-hydroxypropyl)-3-phenylfuro[2,3-c]pyridin-7(6H)-one]
> 10 µM	0.1 to 1 µM	0.1 to 1 µM	COc1ncc(Br)c2c(-c3ccccc3)c(-c3ccc(C4(N)CCC4)cc3)oc12 [Example 132, 1-(4-(4-Bromo-7-methoxy-3-phenylfuro[2,3-c]pyridin-2-yl)phenyl)cyclobutanamine]
> 10 µM	1 to 10 µM	1 to 10 µM	NC1(c2ccc(-c3oc4ccnc(-c5cn[nH]c5)c4c3-c3ccccc3)cc2)CCC1 [Example 133, 1-(4-(3-Phenyl-4-(1H-pyrazol-4-yl)furo[3,2-c]pyridin-2-yl)phenyl)cyclobutanamine]
> 10 µM	1 to 10 µM	0.1 to 1 µM	NC1(c2ccc(-c3oc4ncc(Cl)nc4c3-c3ccccc3)cc2)CCC1 [Example 134, 1-(4-(2-Chloro-7-phenylfuro[2,3-b]pyrazin-6-yl)phenyl)cyclobutanamine]
0.1 to 1 µM	0.1 to 1 µM	0.1 to 1 µM	NC1(c2ccc(-c3oc4ncc(-c5cn[nH]c5)nc4c3-c3ccccc3)cc2)CCC1 [Example 135, 1-(4-(7-Phenyl-2-(1H-pyrazol-4-yl)furo[2,3-b]pyrazin-6-yl)phenyl)cyclobutanamine]

More lines, now with the values behind:

Structure (SMILES)	IC50 (AKT3)	IC50 (AKT2)	IC50 (AKT1)
NC1(c2ccc(-c3oc4ccn(CC(F)(F)F)c(=O)c4c3-c3ccccc3)cc2)CCC1 [Example 109, 2-(4-(1-Aminocyclobutyl)phenyl)-3-Phenyl-5-(2,2,2-trifluoroethyl)furo[3,2-c]pyridin-4(5H)-one, HCl]	> 10 µM	≤ 0.1 µM	1 to 10 µM
Cn1cc(-c2cn(CCF)c(=O)c3c(-c4ccccc4)c(-c4ccc(C5(N)CCC5)cc4)oc23)cn1 [Example 113, 2-(4-(1-Aminocyclobutyl)phenyl)-5-(2-fluoroethyl)-7-(1-methyl-1H-pyrazol-4-yl)-3-phenylfuro[3,2-d]pyridin-4(5H)-one]	1 to 10 µM	0.1 to 1 µM	0.1 to 1 µM
Cn1cc(-c2cn(C)c(=O)c3c(-c4ccccc4)c(-c4ccc(C5(N)CCC5)cc4)oc23)cn1 [Example 114, 2-(4-(1-Aminocyclobutyl)phenyl)-5-methyl-7-(1-methyl-1H-pyrazol-4-yl)-3-phenylfuro[3,2-c]pyridin-4(5H)-one]	1 to 10 µM	0.1 to 1 µM	0.1 to 1 µM
Cn1cc(-c2cncnc2)c2oc(-c3ccc(C4(N)CCC4)cc3)c(-c3ccccc3)c2c1=O [Example 115, 2-(4-(1-Aminocyclobutyl)phenyl)-5-methyl-3-phenyl-7-(pyrimidin-5-yl)furo[3,2-c]pyridin-4(5H)-one]	> 10 µM	1 to 10 µM	0.1 to 1 µM
Cn1cc(-c2ccn[nH]2)c2oc(-c3ccc(C4(N)CCC4)cc3)c(-c3ccccc3)c2c1=O [Example 116, 2-(4-(1-Aminocyclobutyl)phenyl)-5-methyl-3-phenyl-7-(1H-pyrazol-5-yl)furo[3,2-c]pyridin-4(5H)-one]	> 10 µM	0.1 to 1 µM	≤ 0.1 µM
Cn1cc(C(N)=O)c2oc(-c3ccc(C4(N)CCC4)cc3)c(-c3ccccc3)c2c1=O [Example 117, 2-(4-(1-Aminocyclobutyl)phenyl)-5-methyl-4-oxo-3-phenyl-4,5-dihydrofuro[3,2-c]pyridine-7-carboxamide]	1 to 10 µM	0.1 to 1 µM	0.1 to 1 µM
COC(=O)c1cn(C)c(=O)c2c(-c3ccccc3)c(-c3ccc(C4(N)CCC4)cc3)oc12 [Example 118, Methyl 2-(4-(1-aminocyclobutyl)phenyl)-5-methyl-4-oxo-3-phenyl-4,5-dihydrofuro[3,2-c]pyridine-7-carboxylate]	1 to 10 µM	0.1 to 1 µM	≤ 0.1 µM
CNC(=O)c1cn(C)c(=O)c2c(-c3ccccc3)c(-c3ccc(C4(N)CCC4)cc3)oc12 [Example 119, 2-(4-(1-Aminocyclobutyl)phenyl)-N,5-dimethyl-4-oxo-3-phenyl-4,5-dihydrofuro[3,2-c]pyridine-7-carboxamide]	> 10 µM	0.1 to 1 µM	0.1 to 1 µM
Cn1c(=O)[nH]c2oc(-c3ccc(C4(N)CCC4)cc3)c(-c3ccccc3)c2c1=O [Example 124, 6-(4-(1-Aminocyclobutyl)phenyl)-3-methyl-5-phenylfuro[2,3-d]pyrimidine-2,4(1H,3H)-dione hydrochloride]	> 10 µM	0.1 to 1 µM	0.1 to 1 µM
Cn1c(=O)c2c(-c3ccccc3)c(-c3ccc(C4(N)CCC4)cc3)oc2n(C)c1=O [Example 125, 6-(4-(1-Aminocyclobutyl)phenyl)-1,3-dimethyl-5-phenylfuro[2,3-d]pyrimidine-2,4(1H,3H)-dione]	> 10 µM	1 to 10 µM	0.1 to 1 µM
COc1nccc2c(I)c(-c3ccc(C4(N)CCC4)cc3)oc12 [Example 127, 1-(4-(3-Iodo-7-methoxyfuro[2,3-c]pyridin-2-yl)phenyl)cyclobutanamine]	> 10 µM	1 to 10 µM	> 10 µM
NC1(c2ccc(-c3oc4c(=O)[nH]ccc4c3-c3ccccc3)cc2)CCC1 [Example 128, 2-(4-(1-Aminocyclobutyl)phenyl)-3-phenylfuro[2,3-d]pyridin-7(6H)-one]	1 to 10 µM	1 to 10 µM	0.1 to 1 µM
Cn1ccc2c(-c3ccccc3)c(-c3ccc(C4(N)CCC4)cc3)oc2c1=O [Example 129, 2-(4-(1-Aminocyclobutyl)phenyl)-6-methyl-3-phenylfuro[2,3-c]pyridin-7(6H)-one]	1 to 10 µM	0.1 to 1 µM	0.1 to 1 µM
